Source: patent US10966961B2, “Pyrazole derivatives as bromodomain inhibitors” (GLAXOSMITHKLINE INTELLECTUAL PROPERTY (NO.2) LIMITED, priority 2017, dated 2021)

Assays:
BRD4 BD2 = molecular target: T1, BRD4 BD2 (Homo sapiens, UniProt O60885, Y97A); assay: BRD4 BD2 TR-FRET competition assay; format: binding; conditions: for IC50: BRD4 BD2 TR-FRET, read-out: pIC50 in the BRD4 BD2 assay (converted)
T1 construct: BRD4 (1-477) (Y97A) and (Y390A); made in house; host or cells: E. coli (pET15b vector)
Procedure: Time Resolved Fluorescence Resonance Energy Transfer (TR-FRET) assay
Bromodomain binding was assessed utilising a time resolved fluorescent resonance energy transfer (TR-FRET) competition assay. To enable this approach a known, high affinity, pan-BET interacting small molecule was labelled with Alexa Fluor® 647, which is a far-red-fluorescent dye (Reference Compound X). Reference Compound X acts as a reporter of bromodomain binding and is the acceptor fluorophore component of the TR-FRET pair. Europium chelate, conjugated to an anti-6*His antibody, was utilised as the donor fluorophore in the TR-FRET pair. […] A TR-FRET signal is generated when the donor and acceptor fluorophores are in close proximity, between 20-80 Å, which is enabled in this assay by binding of Reference Compound X to the bromodomain protein.
Assay Principle: In order to generate a TR-FRET signal, donor fluorophore is excited by a laser at A337 nm, which subsequently leads to emission at λ618 nm. If the acceptor fluorophore is in close proximity then energy transfer can occur, which leads to emission of Alexa Fluor® 647 at λ665 nm. In the presence of competitor compound, Reference Compound X can be displaced from binding to the bromodomain. If displacement occurs, the acceptor fluorophore is no longer in proximity to the donor fluorophore, which prevents fluorescent energy transfer and, subsequently, a loss of Alexa Fluor® 647 emission at λ665 nm.
(§1) The competition of the compounds of formula (I) with Reference Compound X for binding to the BET family (BRD2, BRD3, BRD4 and BRDT) was assessed using protein truncates spanning both bromodomain 1 (BD1) and bromodomain 2 (BD2). In order to monitor differential binding to either BD1 or BD2, single residue mutations of key tyrosines to alanine were made in the acetyl lysine binding pockets. To validate this approach, a double residue mutant tandem domain protein was produced for each of the BET family members. Utilising a Fluorescence Polarisation approach, binding affinities for each of the single and double mutants for Reference Compound X were determined.
Final purification was completed by Superdex 200 prep grade size exclusion column. Purified protein was stored at −80° C. in 20 mM HEPES pH 7.5 and 100 mM NaCl. […] Protocol for Bromodomain BRD2, 3, 4 and T, BD1+BD2 mutant TR-FRET competition assays:
All assay components were dissolved in an assay buffer composing of 50 mM HEPES pH7.4, 50 mM NaCl, 5% Glycerol, 1 mM DTT and 1 mM CHAPS. Reference Compound X was diluted, in assay buffer containing 20 nM single mutant, tandem bromodomain protein, to a concentration equivalent to 2*Kd for this bromodomain. The solution containing bromodomain and Reference Compound X was added to dose response dilutions of test compound or DMSO vehicle (a maximum of 0.5% DMSO is used in this assay) in Greiner 384 well black low volume microtitre plates and subsequently incubated for 30 minutes at rt. An equal volume of 3 nM of anti-6*His Europium chelate was added to all wells, followed by a further 30 minute incubation at rt. TR-FRET was detected using a Perkin Elmer Multimode plate reader, by exciting the donor fluorophore at λ337 nm and subsequently, after a delay of 50 μsecs, measuring emission of the donor and acceptor fluorophores at λ615 nm and λ665 nm, respectively. In order to control these assays, 16 replicates each of uninhibited (DMSO vehicle) and inhibited (10*IC50 concentrations of Example 11 of WO 2011/054846A1) TR-FRET assays were included on every microtitre plate.
cA four parameter curve fit of the following form was then applied: y=a+((b−a)/(1+(10^x/10^c)^d)
Where ‘a’ is the minimum, ‘H’ is the Hill slope, ‘c’ is the pIC50 and ‘d’ is the maximum.
All compounds (Examples) were each tested in the BRD4 BD1 and the BRD4 BD2 TR-FRET assays essentially as described above. Those of skill in the art will recognise that in vitro binding assays and cell-based assays for functional activity are subject to experimental variability.

[1] = tested on: double residue mutant tandem domain BET proteins (BRD2, BRD3, BRD4 and BRDT); assay: Fluorescence Polarisation binding of Reference Compound X to mutant tandem BET proteins; parameters: species or system Human; conditions: double mutant vs non mutated tandem BET proteins
Procedure: as §1, with “determined. […] The affinities of the single mutated bromdomain tandem proteins for Reference Compound X were equi-potent with the corresponding non-mutated BET protein. […] In the TR-FRET competition assay, Reference Compound X is used at a concentration that is equivalent to the Kd for the non-mutated bromodomain, which ensures that no binding at the mutated bromodomain is detected. […]” for “determined.”

SMILES	IC50 (BRD4 BD2) [nM]	also measured
CNC(=O)c1cc(C(=O)NC)n(Cc2ccccc2)n1 [Example 94, 1-Benzyl-N^3,N^5-dimethyl-1H-pyrazole-3,5-dicarboxamide]	1000 to 10000	–
CNC(=O)c1cc(C(=O)NC(C)(C)C)n([C@@H](C)c2ccccc2)n1 [Example 112, (S)-N^5-(tert-Butyl)-N^3-methyl-1-(1-phenylethyl)-1H-pyrazole-3,5-dicarboxamide]	1000 to 10000	–
CNC(=O)c1cc(C(=O)N[C@H]2[C@@H]3COC[C@@H]32)n([C@H](C)c2cccc3[nH]ccc23)n1 [Example 132, 1-((R)-1-(1H-Indol-4-yl)ethyl)-N^5-((1R,5S,6r)-3-oxabicyclo[3.1.0]hexan-6-yl)-N^3-methyl-1H-pyrazole-3,5-dicarboxamide]	1000 to 10000	–
CCNC(=O)c1cc(C(=O)N[C@H]2CC[C@H](O)CC2)n([C@@H](C)c2ccccc2)n1 [Example 108, N^3-Ethyl-N^5-((1r,4S)-4-hydroxycyclohexyl)-1-((S)-1-phenylethyl)-1H-pyrazole-3,5-dicarboxamide]	1000 to 10000	–
CNC(=O)c1cc(C(=O)N[C@H]2[C@@H]3COC[C@@H]32)n([C@H](C)c2ccccc2)n1 [Example 109, N^5-((1R,5S,6r)-3-Oxabicyclo[3.1.0]hexan-6-yl)-N^3-methyl-1-((R)-1-phenylethyl)-1H-pyrazole-3,5-dicarboxamide]	1000 to 10000	–
CNC(=O)c1cc(C(=O)NC2CC2)n(Cc2ccc(C#N)cc2)n1 [Example 102, 1-(4-Cyanobenzyl)-N^5-cyclopropyl-N^3-methyl-1H-pyrazole-3,5-dicarboxamide]	1000 to 10000	–
CNC(=O)c1cc(C(=O)NC(C)C)n(Cc2ccccc2)n1 [Example 96, 1-Benzyl-N^5-isopropyl-N^3-methyl-1H-pyrazole-3,5-dicarboxamide]	1000 to 10000	–
CNC(=O)c1cc(C(=O)N[C@H]2C[C@@H]2C)n(C(C)c2ccnc3c2ccn3S(=O)(=O)c2ccc(C)cc2)n1 (stereo partly drawn) [Example 135, N^3-Methyl-N^5-((1S,2S)-2-methylcyclopropyl)-1-(1-(1-tosyl-1H-pyrrolo[2,3-b]pyridin-4-yl)ethyl)-1H-pyrazole-3,5-dicarboxamide]	1000 to 10000	–
COc1ccc2c(c1)C(c1ccc(Cl)cc1)=N[C@@H](CC(=O)NCCCCCNC(=O)CCCCCC1(C)/C(=C/C=C/C=C/C3=[N+](CCCCS(=O)(=O)O)c4ccc(S(=O)(=O)O)cc4C3(C)C)N(CCCCS(=O)(=O)[O-])c3ccc(S(=O)(=O)O)cc31)c1nnc(C)n1-2 (stereo partly drawn) [Reference Compound X]	–	reduction in Kd (affinity) of double mutant tandem proteins versus wild type tandem BET proteins [1]: > 1000 fold
CNC(=O)c1cc(C(=O)NC2CC2)n(Cc2ccccc2OC)n1 [Example 106, N^5-Cyclopropyl-1-(2-methoxybenzyl)-N^3-methyl-1H-pyrazole-3,5-dicarboxamide]	1000 to 10000	–
CNC(=O)c1cc(C(=O)N[C@H]2[C@@H]3COC[C@@H]32)n([C@@H](C)c2ccccc2)n1 [Example 1, N^5-((1R,5S,6r)-3-Oxabicyclo[3.1.0]hexan-6-yl)-N^3-methyl-1-((S)-1-phenylethyl)-1H-pyrazole-3,5-dicarboxamide]	63.1	selectivity for BRD4 BD2 over BRD4 BD1 (BRD4 BD2; BRD4 BD2 pIC50 − BRD4 BD1 pIC50, in at least one of the TR-FRET assays): 2.8 log units

Second part, led by results:

IC50 (BRD4 BD2) [nM]	SMILES	also measured
1000 to 10000	CNC(=O)c1cc(C(=O)NC2CC2)nn1Cc1ccc2[nH]ccc2c1 [Example 233]	–
1000 to 10000	CNC(=O)c1cc(C(=O)N[C@@H]2C[C@@H](C)[C@H](O)[C@@H](C)C2)n([C@@H](C)c2ccccc2)n1 [Example 236]	–
1000 to 10000	CNC(=O)c1cc(C(=O)N[C@H]2[C@@H]3C[C@H](O)C[C@@H]32)n([C@H](C)c2cccc(C(F)(F)F)c2)n1 [Example 238]	–
1000 to 10000	CNC(=O)c1cc(C(=O)NC2[C@H]3C[C@H](O)C[C@@H]23)n([C@H](C)c2cccc(C(F)(F)F)c2)n1 (stereo partly drawn) [Example 241]	–
1000 to 10000	CNC(=O)c1cc(C(=O)Nc2c(C)noc2C)n([C@@H](C)c2ccccc2)n1 [Example 248]	–
1000 to 10000	CNC(=O)c1cc(C(=O)N[C@H]2[C@@H]3COC[C@@H]32)n([C@@H](C)c2ccccc2OC)n1 [Example 136, N^5-((1R,5S,6r)-3-Oxabicyclo[3.1.0]hexan-6-yl)-1-((S)-1-(2-methoxyphenyl)ethyl)-N^3-methyl-1H-pyrazole-3,5-dicarboxamide]	–
1000 to 10000	CNC(=O)c1cc(C(=O)Nc2nnc(C(F)(F)F)s2)n([C@@H](C)c2ccccc2)n1 [Example 240]	–
1000 to 10000	CNC(=O)c1cc(C(=O)NC2CC2)nn1Cc1cccc2[nH]ccc12 [Example 234]	–
1000 to 10000	CNC(=O)c1cc(C(=O)Nc2onc(C)c2C#N)n([C@@H](C)c2ccccc2)n1 [Example 239]	–
1000 to 10000	CNC(=O)c1cc(C(=O)N[C@H]2C[C@@H]2C)n([C@H](C)c2ccnc3[nH]ccc23)n1 [Example 137, 1-((R)-1-(1H-Pyrrolo[2,3-b]pyridin-4-yl)ethyl)-N^3-methyl-N^5-((1S,2S)-2-methylcyclopropyl)-1H-pyrazole-3,5-dicarboxamide]	–
1000 to 10000	CNC(=O)c1cc(C(=O)N[C@H]2[C@@H]3C[C@@H](O)C[C@@H]32)n([C@H](C)c2ccc(C(F)(F)F)cc2)n1 [Example 229]	–
1000 to 10000	CNC(=O)c1cc(C(=O)N[C@H]2[C@@H]3COC[C@@H]32)n([C@H](C)c2ccc(Cl)c(F)c2)n1 [Example 237]	–
